The test system of one data set is Artemia salina. Briefly: Toxicity against Artemia salina assessed as mortality after 24 hrs. Format: organism-based. Particulars: in vivo.
A further data set concerns Candida albicans. As to the kind of experiment: Antimicrobial activity against Candida albicans after 24 hrs. Format: functional, organism-based.
Another data set deals with Bacillus subtilis. Briefly: Antimicrobial activity against Bacillus subtilis after 24 hrs. It is filed as functional, organism-based.

Several values for one entry are separate records, joined by “and”; a condition that tells them apart may be missing. Equal entries are not always repeated. Activity calls are given as the source filed them. The calls are words filed in the database; no cut-off is given here.

For `CC(C)[C@@H]1C[C@]2(C)C[C@]3(C)C[C@H]1[C@H]2C[C@@H]3SC#N.CC(C)[C@@H]1C[C@]2(C)C[C@]3(C)C[C@H]1[C@H]2C[C@H]3SC#N`, in the data set on Artemia salina, the Activity was 90% and 35%; the LD50 was found to be 5 ppm. Further, the outcome in the data set on Candida albicans was Active. The outcome with Bacillus subtilis was inactive.
